One series concerns Bacillus subtilis. Put plainly: Antibacterial activity against Bacillus subtilis 168 assessed as reduction in microbial growth incubated for 24 hrs by broth microdilution method. It is filed as functional. A general note: Broth dilution looks for growth in wells or tubes with falling amounts of substance.
In series [1] the test system is Staphylococcus aureus. Put plainly: Antibacterial activity against methicillin sensitive Staphylococcus aureus ATCC 29213 assessed as reduction in microbial growth incubated for 24 hrs by broth microdilution method. It is filed as functional.
The test system of series [2] is Pseudomonas aeruginosa. Put plainly: Antibacterial activity against Pseudomonas aeruginosa ATCC 27853 assessed as reduction in microbial growth incubated for 24 hrs by broth microdilution method. Type of series: functional.
For series [3], the system named is Escherichia coli. Put plainly: Antibacterial activity against Escherichia coli ATCC 25922 assessed as reduction in microbial growth incubated for 24 hrs by broth microdilution method. It is filed as functional.
The subject of another series is Salmonella typhimurium. The series can be described thus: Antibacterial activity against Salmonella typhimurium TA100 assessed as reduction in microbial growth incubated for 24 hrs by broth microdilution method. Conditions: Salmonella enterica. It is filed as functional, Salmonella enterica subsp. enterica serovar Typhimurium.
A short description of series [4]: Cytotoxicity against human CHL assessed as reduction in cell viability incubated for 72 hrs by MTT assay. Type of series: toxicity, cell-based. Conditions: CHL cells. Background: Tetrazolium dyes change colour on reduction, which living cells bring about.
Series [5] is described as follows: Cytotoxicity against human HSF assessed as reduction in cell viability incubated for 72 hrs by MTT assay. The conditions noted are these: HSF cells. It is filed as toxicity, cell-based.
A short description of series [6]: Cytotoxicity against human MSC assessed as reduction in cell viability incubated for 72 hrs by MTT assay. Type of series: toxicity, cell-based. Conditions: MSC cells.
For the next series, the target named is Topoisomerase IV (Staphylococcus aureus, UniProt P0C1S7+P0C1U9). Put plainly: Inhibition of Staphylococcus aureus topoisomerase-IV assessed as reduction in decatenation using kinetoplast DNA as substrate incubated for 30 mins by ethidium bromide staining based agarose gel electrophoresis method. Type of series: protein-complex assay.
The test system of a further series is Micrococcus luteus. The series can be described thus: Antibacterial activity against clinical isolate Micrococcus luteus assessed as reduction in microbial growth incubated for 24 hrs by broth microdilution method. It is filed as functional.
The subject of series [7] is Staphylococcus aureus. The series can be described thus: Antibacterial activity against clinical isolate Staphylococcus aureus 4721 assessed as reduction in microbial growth incubated for 24 hrs by broth microdilution method. Type of series: functional.
Series [8] relates to Staphylococcus epidermidis. Put plainly: Antibacterial activity against clinical isolate Staphylococcus epidermidis assessed as reduction in microbial growth incubated for 24 hrs by broth microdilution method. It is filed as functional.
Series [9] relates to Staphylococcus auricularis. The series can be described thus: Antibacterial activity against clinical isolate Staphylococcus auricularis NKC 7 assessed as reduction in microbial growth incubated for 24 hrs by broth microdilution method. Type of series: functional.
Series [10] deals with Staphylococcus haemolyticus. Put plainly: Antibacterial activity against clinical isolate Staphylococcus haemolyticus NKC 31/2 assessed as reduction in microbial growth incubated for 24 hrs by broth microdilution method. It is filed as functional.
In series [11] the test system is Staphylococcus epidermidis. Put plainly: Antibacterial activity against clinical isolate Staphylococcus epidermidis NKC 37/1 assessed as reduction in microbial growth incubated for 24 hrs by broth microdilution method. Type of series: functional.
Series [12] concerns Staphylococcus aureus. Put plainly: Antibacterial activity against clinical isolate Staphylococcus aureus 1812 assessed as reduction in microbial growth incubated for 24 hrs by broth microdilution method. It is filed as functional.
Series [13] concerns Staphylococcus aureus. Put plainly: Antibacterial activity against clinical isolate methicillin resistant Staphylococcus aureus 4771 assessed as reduction in microbial growth incubated for 24 hrs by broth microdilution method. It is filed as functional.
The test system of series [14] is Staphylococcus haemolyticus. Put plainly: Antibacterial activity against clinical isolate Staphylococcus haemolyticus 1464 assessed as reduction in microbial growth incubated for 24 hrs by broth microdilution method. It is filed as functional.
The subject of a further series is Enterococcus faecalis. Put plainly: Antibacterial activity against clinical isolate Enterococcus faecalis 1465 assessed as reduction in microbial growth incubated for 24 hrs by broth microdilution method. It is filed as functional.
Series [15] relates to Escherichia coli. The series can be described thus: Antibacterial activity against clinical isolate Escherichia coli NKC 1 assessed as reduction in microbial growth incubated for 24 hrs by broth microdilution method. Type of series: functional.
The subject of series [16] is Pseudomonas aeruginosa. Put plainly: Antibacterial activity against clinical isolate Pseudomonas aeruginosa NKC 17 assessed as reduction in microbial growth incubated for 24 hrs by broth microdilution method. Type of series: functional.
A further series relates to Cedecea davisae. Put plainly: Antibacterial activity against clinical isolate Cedecea davisae 1813 assessed as reduction in microbial growth incubated for 24 hrs by broth microdilution method. Type of series: functional.
Another series has as its system Klebsiella pneumoniae. The series can be described thus: Antibacterial activity against clinical isolate Klebsiella pneumoniae 1678 assessed as reduction in microbial growth incubated for 24 hrs by broth microdilution method. Type of series: functional.
The subject of the next series is Klebsiella aerogenes. The series can be described thus: Antibacterial activity against clinical isolate Enterobacter aerogenes NKC 8 assessed as reduction in microbial growth incubated for 24 hrs by broth microdilution method. Type of series: functional.
Series [17] can be described thus: Toxicity in po dosed F1 C57Bl6 x CBA mouse assessed as lethal dose. Type of series: organism-based. The conditions noted are these: in vivo.
A short description of series [18]: Toxicity in po dosed rat assessed as lethal dose. It is filed as organism-based. The conditions noted are these: in vivo.
A short description of series [19]: Toxicity in F1 C57Bl6 x CBA mouse assessed as mortality at 2000 mg/kg, po. Conditions: in vivo. It is filed as organism-based.
A short description of series [20]: Toxicity in male rat assessed as mortality at 2000 mg/kg, po. Type of series: organism-based. The conditions noted are these: in vivo.
Series [21] is described as follows: Toxicity in female rat assessed as mortality at 2000 mg/kg, po. Type of series: organism-based. Conditions: in vivo.
Series [22] can be described thus: Genotoxicity in Salmonella typhimurium TA98 by Ames test. Type of series: toxicity. Conditions: salmonella enterica subsp. enterica serovar typhimurium. Background: In the Ames test, an excess of revertant colonies over the control signals mutagenicity.
The nature of series [23]: Genotoxicity in Salmonella typhimurium TA100 by Ames test. Type of series: toxicity. Conditions: salmonella enterica subsp. enterica serovar typhimurium.
The nature of series [24]: Genotoxicity in Salmonella typhimurium TA102 by Ames test. Type of series: toxicity. Conditions: salmonella enterica subsp. enterica serovar typhimurium.
Series [25] concerns Staphylococcus aureus. Put plainly: In vivo antibacterial activity against Staphylococcus aureus N-10 infected in SHK mouse model of sepsis assessed as animal death at 2 to 4 mg/kg, po measured after 5 to 14 days. It is filed as functional, organism-based. The conditions noted are these: dose 2-4 mg/kg, time 5-14 day.
Series [26] relates to Staphylococcus aureus. Put plainly: In vivo antibacterial activity against Staphylococcus aureus N-10 infected in SHK mouse model of sepsis assessed as survival at 16 to 18 mg/kg, po measured after 14 days relative to control. It is filed as functional, organism-based. The conditions noted are these: dose 16-18 mg/kg, time 14.0 day.
Series [27] concerns Staphylococcus aureus. Put plainly: In vivo antibacterial activity against Staphylococcus aureus N-10 infected in Po dosed SHK mouse model of sepsis assessed as survival measured after 14 days. Type of series: functional. The conditions noted are these: N-10, 336 h, time 14 day.
The test system of series [28] is Staphylococcus aureus. Put plainly: Potency index ratio of ciprofloxacin ED50 to test compound ED50 for invivo antibacterial activity against Staphylococcus aureus N-10 infected in Po dosed SHK mouse model of sepsis. Type of series: functional.
For series [29], the target named is T1, DNA gyrase (Staphylococcus aureus, UniProt P0A0K8+P20831). Put plainly: Inhibition of Staphylococcus aureus DNA gyrase using supercoiled pBR322 DNA as substrate incubated for 60 mins by ethidium bromide staining based agarose gel electrophoresis method. Type of series: protein-complex assay.
In series [30] the target is T1, DNA gyrase. Put plainly: Inhibition of Staphylococcus aureus DNA gyrase using relaxed pBR322 DNA as substrate incubated for 30 mins by ethidium bromide staining based agarose gel electrophoresis method. Type of series: protein-complex assay.

Each structure is given as a SMILES string. Values after ≈ are worked out from the molar mass of the structure shown. Active and inactive are the calls of the source. The calls are words filed in the database; no cut-off is given here.

By MIC is commonly meant the lowest concentration found to suppress growth. As a reminder, the CC50 is the concentration at which the toxic effect on the cells reaches its halfway point. Broadly, the IC50 is the concentration at which inhibition is half-maximal. By LD50 is commonly meant the dose at which mortality reaches 50%. Broadly, the ED50 is the dose at which the effect has come halfway, by size or by number of responders.

For the compound `COc1c(N2C[C@@H]3CCCN[C@@H]3C2)c(F)cc2c(=O)c(C(=O)O)cn(C3CC3)c12` [MOXIFLOXACIN], the minimal inhibitory concentration (MIC) in the series with Bacillus subtilis turned out to be 2 µg/mL; with Staphylococcus aureus [1], 0.5 µg/mL; in the series on Pseudomonas aeruginosa [2], 4 µg/mL; in the series on Escherichia coli [3] it was 1 µg/mL; in the series on Salmonella typhimurium it was 1 µg/mL. Moreover, the results for the CC50 at 72 h in [4], in series [5] and in series [6] were 35 µg/mL (≈ 87.2 µM), 36.5 µg/mL (≈ 90.8 µM) and 39.4 µg/mL (≈ 98.2 µM), respectively. Moreover, the IC50 at Topoisomerase IV is 29.9 µM.

Turning to `Cc1ncc(CN2CCN(c3cc4c(cc3F)c(=O)c(C(=O)O)cn4C3CC3)CC2)c(CO)c1O.Cl`, the MIC in the series with Micrococcus luteus was 4 µg/mL; in the series on Staphylococcus aureus [7], 0.5 µg/mL; in the series on Bacillus subtilis, 2 µg/mL; in the series on Staphylococcus aureus [1] it was 2 µg/mL; in series [8] it was 2 µg/mL; in the series on Pseudomonas aeruginosa [2] it was greater than 64 µg/mL. Also, the minimal inhibitory concentration (MIC) came to 2 µg/mL in the series with Escherichia coli [3]; 2 µg/mL in the series with Salmonella typhimurium; 0.03 µg/mL in series [9]; 8 µg/mL in [10]; 0.5 µg/mL in series [11]; 1 µg/mL in the series with Staphylococcus aureus [12]. For the same compound, the MIC in the series on Staphylococcus aureus [13] amounted to 1 µg/mL; in series [14], 1 µg/mL; in the series on Enterococcus faecalis, 32 µg/mL; in the series on Escherichia coli [15] it was 0.5 µg/mL; with Pseudomonas aeruginosa [16], 16 µg/mL; in the series with Cedecea davisae, 1 µg/mL. Further, the values for the minimal inhibitory concentration (MIC) in the series on Klebsiella pneumoniae and with Klebsiella aerogenes were 8 µg/mL and 2 µg/mL, respectively. In addition, the figures for the 50% cytotoxic concentration (CC50) at 72 h in series [4], in series [5] and in series [6] were 30.9 µg/mL, 34.5 µg/mL and 40.3 µg/mL, respectively. Moreover, the LD50 in [17] and in series [18] was greater than 2000 mg/kg in each case. For the same compound, the Activity result in series [19], in series [20], in [21], in series [22], in series [23] and in series [24] was “Non-Toxic” in each case. Also, in the series on Staphylococcus aureus [25], the outcome was inactive. Besides, the result with Staphylococcus aureus [26] was Active. The ED50 with Staphylococcus aureus [27] was found to be 7.3 mg/kg. The “Ratio ED50” value in the series on Staphylococcus aureus [28] worked out at 1.5. Also, the IC50 was 59.7 µM on DNA gyrase [29], 1460 µM at DNA gyrase [30] and 397 µM on Topoisomerase IV.

These data come from ChEMBL document CHEMBL5634112, “Synthesis and biological evaluation of fluoroquinolones containing a pyridoxine derivatives moiety” (Eur J Med Chem, 2023).
